Measured values published in patent publication US11208446B2, “Agents and methods for treating CBP-dependent cancers” (priority 2016, dated 2021).
“Also recorded” adds a separate entry of the source. *: point of attachment. Biotin = O=C1N[C@H]2[C@H](CS[C@H]2CCCCC(=O)*)N1

Legend:
[1] = molecular target: T1, CBP in MV411 human AML cells (Homo sapiens, UniProt Q92793); test: Streptavidin affinity purification (pull-down) of CBP with biotinylated peptides, Western blot; format: binding; settings: AML cell lysates, competition with non-biotinylated peptide
T1 construct: endogenous in cells; host or cells: MV411 human AML cells (lysate)
T1 sequence (Q92793 whole entry): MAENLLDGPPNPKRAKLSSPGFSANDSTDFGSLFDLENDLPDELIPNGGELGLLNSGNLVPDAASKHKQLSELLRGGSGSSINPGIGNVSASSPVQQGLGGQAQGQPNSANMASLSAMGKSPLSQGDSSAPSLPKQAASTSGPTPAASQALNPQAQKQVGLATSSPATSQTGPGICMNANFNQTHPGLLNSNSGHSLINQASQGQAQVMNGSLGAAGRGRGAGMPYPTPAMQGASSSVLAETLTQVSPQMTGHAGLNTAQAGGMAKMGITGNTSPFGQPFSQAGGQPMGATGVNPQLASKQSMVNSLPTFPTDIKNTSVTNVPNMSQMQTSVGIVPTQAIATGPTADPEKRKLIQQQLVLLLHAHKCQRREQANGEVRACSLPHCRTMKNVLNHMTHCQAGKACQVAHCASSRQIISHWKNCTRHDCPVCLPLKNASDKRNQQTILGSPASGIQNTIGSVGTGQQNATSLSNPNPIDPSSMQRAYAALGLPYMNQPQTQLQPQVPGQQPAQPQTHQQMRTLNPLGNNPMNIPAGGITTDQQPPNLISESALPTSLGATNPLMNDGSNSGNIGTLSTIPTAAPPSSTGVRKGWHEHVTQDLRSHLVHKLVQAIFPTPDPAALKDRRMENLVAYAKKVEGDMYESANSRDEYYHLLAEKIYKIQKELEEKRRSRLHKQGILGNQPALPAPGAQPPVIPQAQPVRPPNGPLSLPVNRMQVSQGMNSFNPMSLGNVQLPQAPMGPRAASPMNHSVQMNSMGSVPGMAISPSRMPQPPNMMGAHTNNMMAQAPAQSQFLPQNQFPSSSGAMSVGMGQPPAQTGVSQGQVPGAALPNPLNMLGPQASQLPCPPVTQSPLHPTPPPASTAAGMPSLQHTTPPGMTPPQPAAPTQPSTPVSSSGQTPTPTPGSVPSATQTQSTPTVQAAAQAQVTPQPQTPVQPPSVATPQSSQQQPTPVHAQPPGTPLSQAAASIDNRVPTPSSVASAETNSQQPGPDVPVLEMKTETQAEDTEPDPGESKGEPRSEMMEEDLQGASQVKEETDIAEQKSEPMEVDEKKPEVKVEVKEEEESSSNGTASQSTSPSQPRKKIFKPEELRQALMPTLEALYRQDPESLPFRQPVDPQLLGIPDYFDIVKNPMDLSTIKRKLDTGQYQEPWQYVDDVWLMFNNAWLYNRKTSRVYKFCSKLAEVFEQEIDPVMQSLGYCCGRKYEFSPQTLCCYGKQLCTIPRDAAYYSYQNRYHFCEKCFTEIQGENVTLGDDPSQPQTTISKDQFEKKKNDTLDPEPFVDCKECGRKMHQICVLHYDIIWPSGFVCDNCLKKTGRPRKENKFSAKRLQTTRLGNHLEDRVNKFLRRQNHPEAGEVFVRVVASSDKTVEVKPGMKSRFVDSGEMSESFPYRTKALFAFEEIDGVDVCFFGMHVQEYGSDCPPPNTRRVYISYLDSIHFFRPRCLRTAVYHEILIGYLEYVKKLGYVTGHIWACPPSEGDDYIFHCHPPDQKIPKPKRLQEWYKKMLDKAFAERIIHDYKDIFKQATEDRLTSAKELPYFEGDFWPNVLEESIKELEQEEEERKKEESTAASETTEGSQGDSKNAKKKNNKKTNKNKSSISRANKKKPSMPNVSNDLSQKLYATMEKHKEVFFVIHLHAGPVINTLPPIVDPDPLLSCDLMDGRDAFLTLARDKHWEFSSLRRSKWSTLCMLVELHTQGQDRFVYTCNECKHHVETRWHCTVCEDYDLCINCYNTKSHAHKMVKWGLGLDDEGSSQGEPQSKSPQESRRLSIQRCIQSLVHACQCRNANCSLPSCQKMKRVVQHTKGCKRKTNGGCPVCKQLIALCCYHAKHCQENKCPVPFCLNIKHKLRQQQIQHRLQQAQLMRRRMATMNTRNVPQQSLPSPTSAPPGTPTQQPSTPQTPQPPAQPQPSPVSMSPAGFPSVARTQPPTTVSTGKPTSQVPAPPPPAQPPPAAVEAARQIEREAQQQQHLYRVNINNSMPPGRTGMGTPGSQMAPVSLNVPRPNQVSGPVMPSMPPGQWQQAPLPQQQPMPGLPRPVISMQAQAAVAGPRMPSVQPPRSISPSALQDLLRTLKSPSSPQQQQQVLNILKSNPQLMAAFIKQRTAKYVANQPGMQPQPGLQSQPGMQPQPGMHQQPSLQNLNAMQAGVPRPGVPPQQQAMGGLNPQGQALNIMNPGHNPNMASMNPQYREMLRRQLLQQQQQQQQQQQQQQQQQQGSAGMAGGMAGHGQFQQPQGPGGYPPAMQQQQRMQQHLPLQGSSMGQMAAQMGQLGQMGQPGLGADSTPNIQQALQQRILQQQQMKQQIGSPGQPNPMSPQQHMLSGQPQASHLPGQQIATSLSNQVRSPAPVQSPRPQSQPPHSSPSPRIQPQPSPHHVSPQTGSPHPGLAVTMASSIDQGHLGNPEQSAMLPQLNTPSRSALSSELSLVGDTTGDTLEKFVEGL
Experimental: Western blot analysis. Cells were lysed in RIPA buffer (Thermo Fisher) supplemented with a protease inhibitor mix comprised of AEBSF (0.5 mM concentration, Santa Cruz, SC-202041B), Bestatin (0.01 mM concentration, Fisher/Alfa Aesar, J61106-MD), Leupeptin (0.1 mM concentration, Santa Cruz, SC-295358B), and Pepstatin (0.001 mM concentration, Santa Cruz, SC-45036A). Lysates were mechanically disrupted using Covaris S220 adaptive focused sonicator, according to the manufacturer's instructions (Covaris, Woburn, Calif.). Lysates were cleared by centrifugation for 15 min at 18,000×g and clarified lysates were quantified using the bicinchoninic acid assay (Pierce). Clarified lysates (20 μg of protein) were resolved using sodium dodecyl sulfate-polyacrylamide gel electrophoresis, and electroeluted using the Immobilon FL PVDF membranes (Millipore, Billerica, Mass., USA). Membranes were blocked using the Odyssey Blocking buffer (Li-Cor, Lincoln, Nebr., USA). […] Blotted membranes were visualized using secondary antibodies conjugated to IRDye 800CW or IRDye 680RD (Goat anti-rabbit, 1:15,000, and goat anti-mouse, 1:15,000) and the Odyssey CLx fluorescence scanner, according to manufacturer's instructions (Li-Cor, Lincoln, Nebr., USA). […]

[2] = molecular target: T2, purified CBP-KIX domain (Homo sapiens, UniProt Q92793); test: Microscale thermopheresis (MST) binding of FITC-conjugated peptides to purified KIX; settings: FITC-conjugated peptide at fixed concentration, KIX 0.015 to 50 μM, n=3
T2 construct: Expression and purification of recombinant CBP KIX domain; GST (N, cleaved yes); made in house; host or cells: E. coli BL21(DE3)
T2 sequence (Q92793 587-666 limits assumed): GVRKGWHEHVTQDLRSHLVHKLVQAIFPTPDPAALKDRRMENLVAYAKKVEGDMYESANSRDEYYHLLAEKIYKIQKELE
Experimental: Expression and purification of recombinant CBP KIX domain. BL21(DE3) cells (Invitrogen) transformed with pGEX-KIX plasmid were induced at 37° C. with isopropyl β-D-1-thiogalactopyranoside for 3 hours. Cells were lysed in 50 mM Tris-HCl pH 7.3, 150 mM NaCl, 0.1% TWEEN-20, 1 mM DTT, 5 mM EDTA, supplemented with protease inhibitors described above and sonicated for ten minutes (15 sec on, 15 sec off, 40% amplitude) using the Misonix probe sonicator (Qsonica, Newtown, Conn.). Lysate was cleared by centrifugation for 1 h at 21,800×g at 4° C. Cleared lysate was incubated with 4 mL glutathione agarose resin slurry (GoldBio) for 1 h at 4° C. to capture GST-KIX. Resin was washed four times with 50 mM Tris-HCl pH 7.4, 150 mM NaCl. KIX domain was cleaved from GST by incubation of resin-bound GST-KIX with 160 U thrombin (GE Healthcare) overnight at room temperature. Resin was centrifuged at 500×g for 5 min. Supernatant containing cleaved KIX was collected and dialyzed at 4° C. against 50 mM MOPS pH 6.5, 50 mM NaCl, 10% glycerol, 1 μM tris-2-carboxyethylphosphine. KIX was purified using a linear gradient of 50 mM to 1 M NaCl by cation exchange chromatography using MonoS 5/50 GL column (GE Healthcare). Fractions containing purified KIX were dialyzed against 50 mM potassium phosphate pH 5.5, 150 mM NaCl, 10 μM tris-2-carboxyethylphosphine, 30% glycerol, and stored at −80° C. […]

[3] = system: MOLM13 cells; test: Confocal microscopy of intranuclear penetration of FITC-labelled peptide; format: cell-based; settings: 50 nM peptide, 20 minutes, human AML cell line
Experimental: Confocal microscopy. Live confocal imaging was performed using the Leica SP8 confocal microscope and 63× objective with 1 μm z-stack images. Cells were applied to a poly-L-lysine coated chambered Nunc Lab-tek II slide and incubated for 2 hours at 37° C. Prior to imaging, FITC-conjugated peptides were added to cell suspensions at a concentration of 50 nM. Cells were counter-stained using Hoechst 33342 and Mitotracker Red CMX ROS (MProbes) for 10 minutes at a final dilution of 1:10,000 prior to imaging.

[4] = molecular target: T3, MYB:CBP complex (Homo sapiens, UniProt Q92793); test: Dissociation of MYB:CBP complex in AML cells (co-immunoprecipitation); format: cell-based
T3 construct: endogenous in cells; host or cells: MV411 human AML cells
T3 sequence (Q92793 2-2442 limits assumed, one chain of several): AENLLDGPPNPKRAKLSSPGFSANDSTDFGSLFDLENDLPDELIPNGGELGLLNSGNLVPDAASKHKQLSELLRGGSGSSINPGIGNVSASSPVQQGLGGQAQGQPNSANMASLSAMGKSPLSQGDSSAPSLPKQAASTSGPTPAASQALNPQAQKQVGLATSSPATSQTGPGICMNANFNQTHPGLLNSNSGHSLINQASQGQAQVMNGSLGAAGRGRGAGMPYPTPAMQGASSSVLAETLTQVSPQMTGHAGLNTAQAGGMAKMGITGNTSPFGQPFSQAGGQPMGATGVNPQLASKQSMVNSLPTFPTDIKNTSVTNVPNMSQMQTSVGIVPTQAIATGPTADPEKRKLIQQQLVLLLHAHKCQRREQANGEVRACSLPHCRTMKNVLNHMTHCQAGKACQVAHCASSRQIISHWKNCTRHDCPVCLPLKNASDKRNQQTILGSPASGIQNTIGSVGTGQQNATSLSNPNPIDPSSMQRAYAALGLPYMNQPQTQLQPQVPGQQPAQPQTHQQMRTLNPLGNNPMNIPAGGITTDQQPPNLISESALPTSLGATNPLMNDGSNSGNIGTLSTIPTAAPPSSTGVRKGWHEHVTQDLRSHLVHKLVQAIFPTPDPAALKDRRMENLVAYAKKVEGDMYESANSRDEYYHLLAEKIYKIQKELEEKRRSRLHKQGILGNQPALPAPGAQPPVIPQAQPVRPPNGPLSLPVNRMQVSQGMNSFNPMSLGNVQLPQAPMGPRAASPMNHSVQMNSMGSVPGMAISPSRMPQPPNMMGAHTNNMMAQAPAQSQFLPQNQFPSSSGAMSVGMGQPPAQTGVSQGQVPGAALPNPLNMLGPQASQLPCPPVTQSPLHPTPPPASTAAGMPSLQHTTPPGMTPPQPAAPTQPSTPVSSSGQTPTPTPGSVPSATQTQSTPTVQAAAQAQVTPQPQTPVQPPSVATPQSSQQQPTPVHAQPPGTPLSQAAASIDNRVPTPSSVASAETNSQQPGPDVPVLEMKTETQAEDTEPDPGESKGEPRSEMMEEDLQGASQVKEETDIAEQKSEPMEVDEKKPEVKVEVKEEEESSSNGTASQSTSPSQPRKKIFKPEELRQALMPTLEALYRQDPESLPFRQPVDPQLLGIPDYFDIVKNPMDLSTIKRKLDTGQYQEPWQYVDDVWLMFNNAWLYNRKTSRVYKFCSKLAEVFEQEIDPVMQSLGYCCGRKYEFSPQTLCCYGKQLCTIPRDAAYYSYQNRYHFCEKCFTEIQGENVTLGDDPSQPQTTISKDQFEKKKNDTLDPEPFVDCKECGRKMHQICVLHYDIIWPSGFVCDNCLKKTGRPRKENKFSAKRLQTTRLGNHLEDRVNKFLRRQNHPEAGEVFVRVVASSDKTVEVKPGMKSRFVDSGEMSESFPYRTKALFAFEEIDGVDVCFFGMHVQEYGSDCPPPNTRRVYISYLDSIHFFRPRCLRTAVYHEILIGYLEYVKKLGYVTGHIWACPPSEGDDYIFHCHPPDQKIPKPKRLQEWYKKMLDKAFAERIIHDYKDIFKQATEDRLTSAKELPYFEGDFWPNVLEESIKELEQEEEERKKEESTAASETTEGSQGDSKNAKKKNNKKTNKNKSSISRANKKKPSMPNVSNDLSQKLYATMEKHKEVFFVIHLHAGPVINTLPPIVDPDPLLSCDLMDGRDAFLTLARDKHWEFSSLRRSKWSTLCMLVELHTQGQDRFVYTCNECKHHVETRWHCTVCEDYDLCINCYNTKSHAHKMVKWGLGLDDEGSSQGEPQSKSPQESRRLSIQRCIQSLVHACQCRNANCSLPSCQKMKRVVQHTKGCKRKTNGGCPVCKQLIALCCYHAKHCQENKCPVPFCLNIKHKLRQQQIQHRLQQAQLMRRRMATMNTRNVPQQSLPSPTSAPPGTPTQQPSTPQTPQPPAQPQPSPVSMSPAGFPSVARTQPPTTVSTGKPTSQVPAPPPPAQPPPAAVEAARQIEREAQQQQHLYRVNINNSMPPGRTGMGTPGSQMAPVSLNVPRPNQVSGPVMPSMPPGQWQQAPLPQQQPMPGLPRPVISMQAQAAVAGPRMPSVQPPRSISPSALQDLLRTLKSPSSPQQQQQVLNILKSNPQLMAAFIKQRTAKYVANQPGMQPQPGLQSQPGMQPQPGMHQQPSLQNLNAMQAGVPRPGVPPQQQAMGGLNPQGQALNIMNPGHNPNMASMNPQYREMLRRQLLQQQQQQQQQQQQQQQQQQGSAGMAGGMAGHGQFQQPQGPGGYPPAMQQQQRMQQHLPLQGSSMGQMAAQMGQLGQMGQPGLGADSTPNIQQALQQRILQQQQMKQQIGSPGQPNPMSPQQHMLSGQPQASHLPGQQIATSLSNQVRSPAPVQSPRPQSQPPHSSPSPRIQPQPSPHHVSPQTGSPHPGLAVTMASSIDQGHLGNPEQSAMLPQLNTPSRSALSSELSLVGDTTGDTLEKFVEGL
Experimental: Co-immunoprecipitation analysis. 7.5 μg of indicated antibodies were conjugated to 1 mg M-270 Epoxy-coated magnetic beads (Invitrogen) according to manufacturer's instructions. 1×10^7 MV411 cells were collected and washed in cold PBS. Washed cell pellets were resuspended in 350 μL cold lysis buffer (50 mM Tris-HCl pH 7.4, 150 mM NaCl, 1 mM EDTA, 1 mM DTT, 0.5% Triton X-100, supplemented with protease inhibitors described above) and incubated on ice for 10 min. Cells were mechanically disrupted using the Covaris […] adaptive focused sonicator at 50 W peak power, 10% duty cycle, 200 cycles per burst at 4° C. for 300 sec. Lysate was clarified by centrifugation for 15 min at 18,000×g at 4° C. Supernatant (cleared lysate) was diluted in 1.05 mL dilution buffer (50 mM Tris-HCl, 150 mM NaCl, 1 mM EDTA, 1 mM DTT, 10% glycerol, supplemented with protease inhibitors described above for a total volume of 1.4 mL. Diluted lysate was added to 1 mg beads, and immunoprecipitation proceeded for 3 h at 4° C. with rotation. Beads were then washed with lysis buffer twice. Proteins were eluted in 20 μL EB buffer (Invitrogen) for 5 min at room temperature, and eluate was neutralized with 2 μL 1M Tris pH 11. Samples were prepared for Western blot by addition of Laemmli buffer with 50 mM DTT and incubation at 95° C. for 5 min. Presence of MYB and CBP was identified by Western blot as described above.

[5] = system: MOLM13, MV411, ML2, and HL60 cell lines; test: Cell viability, live cell count by Trypan blue exclusion; format: cell-based, human; settings: 10 μM and 20 μM every 48 hours for 6 days
Experimental: Cell culture. The human AML lines MV411, MOLM13, ML2, and HL60 were obtained from the American Type Culture Collection (ATCC, Manassas, Va., USA). Umbilical cord blood was obtained from the New York Blood Center. The identity of all cell lines was verified by STR analysis (Genetica DNA Laboratories, Burlington, N.C., USA) and absence of Mycoplasma sp. contamination was determined using Lonza MycoAlert (Lonza Walkersville, Inc., Walkersville, Md., USA). Cell lines were cultured in 5% CO2 in a humidified atmosphere at 37° C. in RPMI medium supplemented with 10% fetal bovine serum (FBS) and antibiotics (100 U/ml penicillin and 100 μg/ml streptomycin). Cell viability analysis. Cells were resuspended and plated at a concentration of 2×10^5 cells in 200 μL in 96-well tissue culture plates. Media with peptides was replaced every 48 hours. To assess the number of viable cells, cells were resuspended in PBS and 10 μL mixed in a 1:1 ratio with 0.4% Trypan Blue (Thermo Fisher) and counted using a hematocytometer (Hausser Scientific, Horsham, Pa., USA). To assess viability using an ATP-based assay, cell viability was assessed using the CellTiter-Glo Luminescent Viability assay, according to the manufacturer's instructions (Promega). Luminescence was recorded using the Infinite M1000Pro plate reader using integration time of 250 milliseconds (Tecan).

## Biotin-YGRKKRRQRRRGGKRIKELELLLMSTENELK-NH2 [BIOMYB]
[1]
  binding to / pull-down of CBP: able to pull down CBP; also recorded: specific binding

## FITC-AHA-YGRKKRRQRRR-NH2 [FITC-TAT]
[2]
  KD (apparent binding affinity to purified KIX): no interaction seen
[3]
  intranuclear penetration (FITC-Hoechst overlay): overlap of FITC and Hoechst in the nucleus
[3]; listed as SEQ ID NO:6
  intranuclear penetration (FITC-Hoechst overlay): intranuclear penetration

## [Ac]-KLGNETSMGLLELEKIGKGG-RRRQRRKKRGY-[NH2] [TG3, reference compound]
[4]
  MYB:CBP complex in cells: inactive
[5]
  AML cell death (live cells on Day 6): inactive

## acetyl-KLENETSMLLLELEKIRKGGRRRQRRKKRGYK-biotin-NH2 [RI-BIOMYB]
[1]
  binding to / pull-down of CBP: specific binding
